From patent EP0466038A1, “Water-dispersible polyene antifungal complexes” (priority 1990, dated 1992)

Assay: Serum concentration of amphotericin B in rabbits after rectal administration of suppositories (HPLC)
Details: rabbit, in vivo, 10 mg/kg
Protocol: The base Witepsol H-15 was melted at 45° C in a temperature-controlled bath. Equal portions of amphotericin B and dipotassium glycyrrhizinate were added and the mixture was quickly poured into suppository molds and allowed to solidify at room temperature. The target potency was 20 mg amphotericin B/g suppository.
This procedure was repeated with ratios of 1:4 and 1:9 w/w amphotericin B:dispotassium glycyrrhizinate.
These suppositories were tested on white male rabbits weighing from 2.6 to 3.2 kg that received water freely but otherwise fasted for 24 hours prior to administration. Amphotericin B was dosed in 10 mg (activity)/kg and positioned about 2 cm into the rectum. Blood samples of about 1.5 ml were collected from an ear vein of each rabbit at appropriate intervals and evaluated according to procedures in Nilsson-Ehle et al., "Quantitation of amphotericin B with use of High-Pressure Liquid Chromatography," J. Infectious Diseases, Vol. 135, No. 3 (1977).

concentration at 1 h: 1 ng/mL
concentration at 3 h: 2.3 ng/mL
concentration at 5 h: 1.5 ng/mL
concentration at 7 h: 1 ng/mL
concentration at 9 h: 3.3 ng/mL
concentration at 11 h: 2.7 ng/mL
concentration at 24 h: 1.3 ng/mL
SMILES: C[C@@H]1[C@H](O)[C@@H](C)/C=C/C=C/C=C/C=C/C=C/C=C/C=C/[C@H](O[C@@H]2O[C@H](C)[C@@H](O)[C@H](N)[C@@H]2O)C[C@@H]2O[C@](O)(C[C@@H](O)C[C@@H](O)[C@H](O)CC[C@@H](O)C[C@@H](O)CC(=O)O[C@H]1C)C[C@H](O)[C@H]2C(=O)O [Amph., amphotericin B]
